{
  "source": "patent US20040186166A1",
  "about": "“Cannabinoid analogs as peroxisome proliferator activated nuclear receptor gamma activators” (priority 2002, published 2004)",
  "key": {"mPPARγ1": {"target": "T1, mPPARγ1 (Mus musculus, UniProt P37238)", "T1 construct": "made in house; host or cells: reticulocyte lysate in vitro transcription/translation (Promega) from pCMX-mPPARγ1", "T1 sequence (P37238 1-475 isoform P37238-2)": "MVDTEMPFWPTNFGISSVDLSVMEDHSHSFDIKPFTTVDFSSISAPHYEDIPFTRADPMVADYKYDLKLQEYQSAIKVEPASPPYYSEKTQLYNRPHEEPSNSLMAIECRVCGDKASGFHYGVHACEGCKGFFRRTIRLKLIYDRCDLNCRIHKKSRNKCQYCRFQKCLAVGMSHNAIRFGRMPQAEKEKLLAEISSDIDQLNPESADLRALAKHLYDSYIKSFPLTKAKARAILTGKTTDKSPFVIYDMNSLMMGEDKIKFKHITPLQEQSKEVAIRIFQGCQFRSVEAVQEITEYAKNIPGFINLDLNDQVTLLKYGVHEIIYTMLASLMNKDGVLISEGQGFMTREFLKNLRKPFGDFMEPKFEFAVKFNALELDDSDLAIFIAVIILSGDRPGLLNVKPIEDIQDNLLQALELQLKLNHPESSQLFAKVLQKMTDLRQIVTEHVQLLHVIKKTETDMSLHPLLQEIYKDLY", "experiment": "Partial protease (trypsin) digestion assay, PPARγ", "type": "binding", "method": "Partial protease digestion was carried out as described by Leng et. al. (J Steroid Biochem Mol Biol 46:643-61, 1993). PPAR proteins were made by in vitro transcription/translation reactions in reticulocyte lysate according to the manufacture's instructions (Promega). AJA, GW347845, or vehicle alone was incubated with the 35S-labeled PPARs at room temperature for one hour before trypsin digestion. Reactions were stopped by boiling in SDS-containing sample buffer, and lysates were subjected to SDS-PAGE and autoradiography.\nTo determine if AJA can bind to PPARγ, in vitro translated ^35S-labeled mPPARγ1 was incubated with AJA or a carrier vehicle before trypsin digestion. To test if AJA binds to PPARs, partial proteinase digestion assays were conducted as described previously (Leng et al., J Steroid Biochem Mol Biol 46:643-61, 1993). […] Such conformational change can be detected by limited proteinase digestion based on alteration of the accessibility of proteolytic sites on the surface of the receptors.\nThe PPAR proteins were synthesized and labeled with ^35S-methionine in reticulocyte lysate and incubated with AJA, GW347845, or vehicle alone at room temperature for one hour before trypsin digestion. […] The proteolytic patterns of PPAR proteins were then analyzed by SDS-PAGE and autoradiography, and compared with vehicle-treated control samples. […]"}, "human PPARα": {"target": "T2, human PPARα (Homo sapiens, UniProt Q07869)", "T2 construct": "The Gal4-hPPAR LBD constructs were obtained from GlaxoSmithKline; host or cells: HEK293", "T2 sequence (Q07869 239-466 limits assumed)": "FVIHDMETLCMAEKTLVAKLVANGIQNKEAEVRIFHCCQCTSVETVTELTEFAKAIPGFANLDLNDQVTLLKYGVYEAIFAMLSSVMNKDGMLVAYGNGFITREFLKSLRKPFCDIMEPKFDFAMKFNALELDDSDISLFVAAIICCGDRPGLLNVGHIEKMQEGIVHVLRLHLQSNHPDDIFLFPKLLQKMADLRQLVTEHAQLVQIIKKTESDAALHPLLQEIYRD", "experiment": "Gal4-dependent MH100-Luc reporter, human PPARα", "type": "cell-based", "method": "The pGEX-DRIP205 (527˜970) was obtained from the Sloan-Kettering Cancer Center. The Gal4-hPPAR LBD constructs were obtained from GlaxoSmithKline, Research Triangle Park, NC. The IL8-Luciferase reporter was obtained from Celgene, San Diego, Calif. The plasmids mPPARα, mPPARγ1, mPPARδ , and hRXRα were in the pCMX vector (Umesono et al., Cell 65:1255-1266, 1991).\nFor PPARγ activation assay, HEK293 cells were plated in 12-well cell culture plates and maintained in Dulbecco's modified Eagle's medium (DMEM) supplemented with 10% fetal bovine serum (FBS) at 37° C. under 5% CO2. […] The average normalized luciferase activity was determined via triplicate experiments. […]\nTo further confirm activation of PPARγ by AJA, and also to determine PPARγ species specificity, the ability of AJA to activate the chimeric Gal4-DBD/PPAR fusion proteins on a Gal4-dependent MH100-Luc reporter was assessed (FIG. 4A). The PPARs were expressed as Gal4 DBD fusion proteins, which bind to the UAS promoter containing 4 copies of a synthetic Gal4 binding site upstream of the minimal thymidine kinase (TK) promoter. […] Transfected cells were treated with increasing concentrations of AJA from 10-60 μM and the luciferase activities were determined in triplicate experiments. […]"}, "CB2": {"target": "CB2 (Homo sapiens, UniProt P34972)", "sequence (P34972 whole entry, species assumed)": "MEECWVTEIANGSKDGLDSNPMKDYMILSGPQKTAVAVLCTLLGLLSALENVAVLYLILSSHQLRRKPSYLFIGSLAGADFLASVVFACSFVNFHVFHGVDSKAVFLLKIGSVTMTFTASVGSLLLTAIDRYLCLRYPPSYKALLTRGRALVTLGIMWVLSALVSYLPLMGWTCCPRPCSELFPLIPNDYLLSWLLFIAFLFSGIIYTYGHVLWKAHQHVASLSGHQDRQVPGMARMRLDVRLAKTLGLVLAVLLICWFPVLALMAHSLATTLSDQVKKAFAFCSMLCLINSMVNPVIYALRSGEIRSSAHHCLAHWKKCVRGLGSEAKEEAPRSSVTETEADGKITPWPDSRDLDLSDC", "settings": "Recht et al. 2001; cited from earlier work"}, "[1]": {"settings": "mouse tail clip assay, cited from earlier work"}, "[2]": {"settings": "IL-1β and TNFα injected into subcutaneous air pouches, mice; cited from earlier work"}},
  "data": [
    {"smiles": "CCCCCCC(C)(C)c1cc(O)c2c(c1)OC(C)(C)[C@@H]1CC=C(C(=O)O)C[C@@H]21", "note": "[AJA, dimethylheptyl-THC-11-oic acid]", "values": [
      {"measurement": "trypsin-resistant PPARγ fragments (protection from trypsin digestion)", "setting": "mPPARγ1; 20 μM AJA, 30 μg/ml trypsin, 30 or 60 min", "value": "Two prominent trypsin-resistant fragments of 30 and 24 kDa"},
      {"measurement": "proteinase-resistant PPARγ fragments, concentration dependence", "setting": "mPPARγ1; 2, 20 and 100 μM AJA", "value": "proteinase-resistant PPARγ fragments were observed"},
      {"measurement": "activation of human PPARα", "setting": "human PPARα", "value": "did not activate"},
      {"measurement": "affinity to CB2", "setting": "CB2", "value": "modest affinity"},
      {"measurement": "analgesic function", "setting": "[1]; Dajani et al. 1999", "value": "potent analgesic function comparable with morphine"},
      {"measurement": "duration of analgesic effect", "setting": "[1]; compared with morphine", "value": "lasted even longer than morphin"},
      {"measurement": "acute inflammation", "setting": "[2]", "value": "suppress"}
    ]}
  ]
}
